By Ki is commonly meant a dissociation constant, usually derived from enzyme kinetics or from competition with a known ligand. A higher Ki goes with a looser hold on the target. The term IC50 denotes the concentration that gives 50% inhibition. A low value points to higher potency.

Experimental findings from patent publication EP0918774B9, “ANDROGEN RECEPTOR MODULATOR COMPOUNDS AND METHODS” (LIGAND PHARMACEUTICALS INCORPORATED, priority 1996, dated 1997) are described below.

Read-outs that look alike come from different tables or passages of the source.

Assay [1] deals with T1, human AR (Homo sapiens, UniProt P10275).
T1 construct: expressed in transfected cells; host or cells: CV-1 cells (African green monkey kidney fibroblasts), transient calcium phosphate transfection
T1 sequence (P10275 1-920): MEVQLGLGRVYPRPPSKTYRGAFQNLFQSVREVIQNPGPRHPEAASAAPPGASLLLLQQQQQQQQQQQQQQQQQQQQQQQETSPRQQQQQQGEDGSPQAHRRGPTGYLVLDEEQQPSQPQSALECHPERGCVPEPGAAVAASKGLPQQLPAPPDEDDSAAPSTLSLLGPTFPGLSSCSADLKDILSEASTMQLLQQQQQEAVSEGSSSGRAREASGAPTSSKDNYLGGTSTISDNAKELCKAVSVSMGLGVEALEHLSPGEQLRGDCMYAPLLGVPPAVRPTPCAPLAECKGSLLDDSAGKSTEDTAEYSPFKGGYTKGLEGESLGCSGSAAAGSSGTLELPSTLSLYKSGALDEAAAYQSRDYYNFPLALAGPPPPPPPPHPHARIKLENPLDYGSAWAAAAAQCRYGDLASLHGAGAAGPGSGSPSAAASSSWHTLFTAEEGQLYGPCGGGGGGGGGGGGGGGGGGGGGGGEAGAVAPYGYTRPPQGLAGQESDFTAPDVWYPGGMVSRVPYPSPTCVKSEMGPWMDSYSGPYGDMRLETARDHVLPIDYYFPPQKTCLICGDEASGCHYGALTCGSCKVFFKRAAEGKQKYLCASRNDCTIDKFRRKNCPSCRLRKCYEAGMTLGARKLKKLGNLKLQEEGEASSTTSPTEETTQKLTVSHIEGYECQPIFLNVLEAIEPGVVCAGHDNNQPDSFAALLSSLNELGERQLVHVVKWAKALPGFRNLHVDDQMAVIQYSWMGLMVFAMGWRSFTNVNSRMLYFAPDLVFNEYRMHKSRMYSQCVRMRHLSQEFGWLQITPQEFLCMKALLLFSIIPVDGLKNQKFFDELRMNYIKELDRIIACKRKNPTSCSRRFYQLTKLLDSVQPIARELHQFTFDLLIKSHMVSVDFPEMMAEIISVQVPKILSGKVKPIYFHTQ
Kind of assay: cell-based. It counts as cell-based. Particulars: for AR Antagonist CV-1 Cells Efficacy (%): % of maximal inhibition, fixed DHT at EC50; for AR agonist/antagonist profile (in words): co-transfection assay, summary of Tables 1-2; for AR Agonist CV-1 Cells Efficacy (%): percent maximal response relative to reference agonist DHT. The text has this: The co-transfection assay provides a method for identifying functional agonists and partial agonists which mimic, or antagonists which inhibit, the effect of native hormones, and quantifying their activity for responsive IR proteins. In this regard, the co-transfection assay mimics an in vivo system in the laboratory. Importantly, activity in the co-transfection assay correlates very well with known in vivo activity, such that the co-transfection assay functions as a qualitative and quantitative predictor of a tested compounds in vivo pharmacology. See, e.g., T. Berger et al. 41 J. Steroid Biochem. Molec.
(§1) CV-1 cells (African green monkey kidney fibroblasts) were cultured in the presence of Dulbecco's Modified Eagle Medium (DMEM) supplemented with 10% charcoal resinstripped fetal bovine serum then transferred to 96-well microtiter plates one day prior to transfection.
The reporter plasmid, MTV-LUC, contains the cDNA for firefly luciferase (LUC) under control of the mouse mammary tumor virus (MTV) long terminal repeat, a conditional promoter containing an androgen response element. See e.g, Berger et al. supra. In addition, pRS-β-Gal, coding for constitutive expression of E. colβ-galactosidase (β-Gal), was included as an internal control for evaluation of transfection efficiency and compound toxicity.
(§2) Three to four replicates were used for each sample.
(§3) After 40 hours, the cells were washed with PBS, lysed with a Triton X-100-based buffer and assayed for LUC and β-Gal activities using a luminometer or spectrophotometer, respectively. For each replicate, the normalized response (NR) was calculated as: LUC response/β-Gal rate where β-Gal rate = β-Gal•1x10^-5/β-Gal incubation time.

For assay [2], the target named is T1, human AR. The experiment in a line: cell-based. Format: binding.
The target of a further assay is T2, PR (Homo sapiens, UniProt P06401).
T2 sequence (P06401 1-933): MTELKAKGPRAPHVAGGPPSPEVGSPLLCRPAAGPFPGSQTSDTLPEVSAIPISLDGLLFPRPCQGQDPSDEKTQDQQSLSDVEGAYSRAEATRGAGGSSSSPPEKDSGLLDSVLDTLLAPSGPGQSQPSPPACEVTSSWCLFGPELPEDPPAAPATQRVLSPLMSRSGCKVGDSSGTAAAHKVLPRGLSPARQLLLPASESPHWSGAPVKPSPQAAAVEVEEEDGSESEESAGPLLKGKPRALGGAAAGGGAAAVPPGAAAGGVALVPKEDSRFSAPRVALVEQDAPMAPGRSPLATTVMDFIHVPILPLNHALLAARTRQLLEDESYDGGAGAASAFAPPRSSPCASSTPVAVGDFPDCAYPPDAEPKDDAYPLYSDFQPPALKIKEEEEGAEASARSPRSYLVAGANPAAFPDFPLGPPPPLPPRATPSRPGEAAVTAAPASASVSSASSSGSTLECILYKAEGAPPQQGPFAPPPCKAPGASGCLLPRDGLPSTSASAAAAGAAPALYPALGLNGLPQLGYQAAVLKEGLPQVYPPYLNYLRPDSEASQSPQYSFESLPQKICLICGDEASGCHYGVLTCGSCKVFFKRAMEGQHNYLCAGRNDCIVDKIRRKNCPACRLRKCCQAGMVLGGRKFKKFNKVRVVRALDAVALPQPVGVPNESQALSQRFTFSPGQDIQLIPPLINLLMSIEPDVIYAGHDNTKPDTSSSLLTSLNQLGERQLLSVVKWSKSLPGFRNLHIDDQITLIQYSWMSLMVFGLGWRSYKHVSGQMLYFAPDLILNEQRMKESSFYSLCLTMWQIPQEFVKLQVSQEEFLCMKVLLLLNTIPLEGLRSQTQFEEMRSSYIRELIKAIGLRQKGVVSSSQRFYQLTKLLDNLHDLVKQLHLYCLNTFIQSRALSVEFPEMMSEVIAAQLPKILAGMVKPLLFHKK
The experiment in a line: Co-transfection assay, PR agonist mode. It counts as cell-based. The arrangement: expressed in transfected cells; host or cells: CV-1 cells. The procedure: as §1, §2, §3

With `CC1CC(C)(C)n2oc(=O)c3c4[nH]c(=O)cc(C(F)(F)F)c4cc1c32` (centres unmarked) [Compound 113, 1,10-[1,3-dihydro-3-oxo-(2,1-isoxazolyl)]-1,2,3,4-tetrahydro-2,2,4,10-tetramethyl-6-trifluoromethyl-8-pyridono[5,6-g]quinoline], at human AR [1] (na = not active), the “AR Antagonist CV-1 Cells Efficacy (%)” value is given as 48% and the “AR Agonist CV-1 Cells Efficacy (%)” value was 26%. At human AR [1], the “AR agonist/antagonist profile (in words)” value is reported as “mixed AR agonists/antagonists”. The compound also registered a Ki at human AR [2] of 0.017 µM.
Take `CC1(C)CCc2cc3c(C(F)F)c(F)c(=O)[nH]c3cc2N1` [Compound 106, 6-Difluoromethyl-7-fluoro-1,2,3,4-tetrahydro-2,2-dimethyl-8-pyridono[5,6-g]quinoline]: at human AR [1], the EC50 is greater than 10 µM and it took 0.06 µM to reach half-maximal inhibition (IC50). In addition, at human AR [1] (na = not active), the “AR Antagonist CV-1 Cells Efficacy (%)” value was found to be 83%; the “AR Agonist CV-1 Cells Efficacy (%)” value is “na (not active (i.e. efficacy of <20 and potency of >10,000))”.
On to `CN1c2cc3c(cc2CCC1(C)C)c(C(F)(F)F)c(F)c(=O)n3C` [Compound 109, 7-Fluoro-1,2,3,4-tetrahydro-1,2,2,9-tetramethyl-6-trifluoromethyl-8-pyridono[5,6-g]quinoline], for which, on human AR [1], the EC50 was greater than 10 µM, 0.012 µM corresponded to half-maximal inhibition (IC50) and the “AR agonist/antagonist profile (in words)” value was “highly selective AR antagonists”. Further, at human AR [1] (na = not active), the “AR Antagonist CV-1 Cells Efficacy (%)” value is recorded as 86%; the “AR Agonist CV-1 Cells Efficacy (%)” value is “na (not active (i.e. efficacy of <20 and potency of >10,000))”.
`Cc1c2c(cc3c(C(F)(F)F)c(F)c(=O)n(C)c13)C(C)CC(C)(C)N2` (centres unmarked) [Compound 116, 7-Fluoro-1,2,3,4-tetrahydro-2,2,4,9,10-pentamethyl-6-trifluoromethyl-8-pyridono[5,6-g]quinoline] had an EC50 on human AR [1] greater than 10 µM. Moreover, at human AR [1] (na = not active), the “AR Antagonist CV-1 Cells Efficacy (%)” value is reported as 20%; the “AR Agonist CV-1 Cells Efficacy (%)” value is “na (not active (i.e. efficacy of <20 and potency of >10,000))”.
For the compound `Cc1c2c(cc3c(C(F)(F)F)c(F)c(=O)[nH]c13)C(C)CC(C)(C)N2C` (centres unmarked) [Compound 117, 7-Fluoro-1,2,3,4-tetrahydro-1,2,2,4,10-pentamethyl-6-trifuluoromethyl-8-pyridono[5,6-g]quinoline], at human AR [1] (na = not active), the “AR Antagonist CV-1 Cells Efficacy (%)” value was 81%; the “AR Agonist CV-1 Cells Efficacy (%)” value was “na (not active (i.e. efficacy of <20 and potency of >10,000))”. In addition, the EC50 on human AR [1] (read-out: AR Agonist CV-1 Cells Potency, agonist potency EC50, na = not active) was greater than 10 µM.
Turning to `CC1=CC(C)(C)Nc2c1cc1c(C(F)(F)F)c(F)c(=O)[nH]c1c2C` [Compound 114, 7-Fluoro-1,2-dihydro-2,2,4,10-tetramethyl-6-trifluoromethyl-8-pyridono[5,6-g]quinoline], the EC50 at human AR [1] is greater than 10 µM. On human AR [1] (na = not active), the “AR Antagonist CV-1 Cells Efficacy (%)” value is given as 90%; the “AR Agonist CV-1 Cells Efficacy (%)” value is “na (not active (i.e. efficacy of <20 and potency of >10,000))”.
Compound `CCC1(CC)CCc2cc3c(C(F)(F)F)c(F)c(=O)[nH]c3cc2N1` [Compound 120, 2,2-Diethyl-7-fluoro-1,2,3,4-tetrahydro-6-trifluoromethyl-8-pyridono[5,6-g]quinoline] yielded an IC50 on human AR [1] of 0.025 µM. The “AR Antagonist CV-1 Cells Efficacy (%)” value at human AR [1] (na = not active) was 61%.
Consider `CC1CC(C)(C)Nc2cc3[nH]c(=O)c(F)c(C(F)(F)F)c3cc21` (centres unmarked) [Compound 112, 7-Fluoro-1,2,3,4-tetrahydro-2,2,4-trimethyl-6-trifluoromethyl-8-pyridono[5,6-g]quinoline], for which the “AR Antagonist CV-1 Cells Efficacy (%)” value on human AR [1] (na = not active) worked out at 49%. In addition, the “AR agonist/antagonist profile (in words)” value at human AR [1] is “highly selective AR antagonists”.
At human AR [1], `Cc1c2c(cc3c(C(F)(F)F)c(F)c(=O)[nH]c13)C(C)CC(C)(C)N2` (centres unmarked) [Compound 115, 7-Fluoro-1,2,3,4-tetrahydro-2,2,4,10-tetramethyl-6-trifluoromethyl-8-pyridono[5,6-g]quinoline] showed an EC50 greater than 10 µM and an IC50 of 0.101 µM. Further, at human AR [1] (na = not active), the “AR Antagonist CV-1 Cells Efficacy (%)” value was 88%; the “AR Agonist CV-1 Cells Efficacy (%)” value was “na (not active (i.e. efficacy of <20 and potency of >10,000))”.
For the compound `Cn1c(=O)c(F)c(C(F)(F)F)c2cc3c(cc21)N1CCCC1(C)CC3` (racemic) [Compound 104, (R/S)-3-Fluoro-6,7,7a,11-tetrahydro-1,7a-dimethyl-4-trifluoromethyl-2-pyridono[5.6-g]pyrrolidino[1,2-a]quinoline], the EC50 is greater than 10 µM at human AR [1]; greater than 10 µM on human AR [1] (read-out: AR Potency Agon, Table 2, na = not active); greater than 10 µM at PR. For the same compound, the “AR Antagonist CV-1 Cells Efficacy (%)” value on human AR [1] (na = not active) is reported as 86%. Further, the “AR Agonist CV-1 Cells Efficacy (%)” value on human AR [1] (na = not active) was “na (not active (i.e. efficacy of <20 and potency of >10,000))”. Further, the inhibition constant (Ki) at human AR [2] is 0.159 µM.
`Cn1c(=O)c(F)c(C(F)(F)F)c2cc3c(cc21)NC(C)(C)CC3` [Compound 107, 7-Fluoro-1,2,3,4-tetrahydro-2,2,9-trimethyl-6-trifluoromethyl-8-pyridono[5,6-g]quinoline]: at human AR [1], the EC50 is greater than 10 µM and inhibition was half-maximal at 0.047 µM (IC50). Also, on human AR [1] (na = not active), the “AR Antagonist CV-1 Cells Efficacy (%)” value is 79%; the “AR Agonist CV-1 Cells Efficacy (%)” value is “na (not active (i.e. efficacy of <20 and potency of >10,000))”.
As to `CC1=CC(C)(C)Nc2cc3[nH]c(=O)c(F)c(C(F)(F)F)c3cc21` [Compound 111, 7-Fluoro-1,2-dihydro-2,2,4-trimethyl-6-trifluoromethyl-8-pyridono[5,6-g]quinoline], on human AR [1] (na = not active), the “AR Antagonist CV-1 Cells Efficacy (%)” value is given as 50% and the “AR Agonist CV-1 Cells Efficacy (%)” value stood at 20%. In addition, on human AR [1], the “AR agonist/antagonist profile (in words)” value is reported as “mixed AR agonists/antagonists”. The compound further gave a Ki at human AR [2] of 0.804 µM.
